Reference: PubChem BioAssay (NCI)
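Protocol summary: plate cells (96-well), add compound at 5 concentrations, incubate 48 h, interpolate endpoints linearly. TGI: total growth inhibition.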

How the values were obtained:
Assay in all cases: growth of human tumour cells (NCI), 48 h
[1] = system: HL-60(TB) leukemia
[2] = system: IGROV1 ovarian
[3] = system: LOX IMVI melanoma
[4] = system: MALME-3M melanoma
[5] = system: MOLT-4 leukemia
[6] = system: NCI-H23 lung
[7] = system: NCI-H460 lung
[8] = system: OVCAR-3 ovarian
[9] = system: OVCAR-5 ovarian
[10] = system: RPMI-8226 leukemia
[11] = system: SK-OV-3 ovarian
[12] = system: TK-10 renal
[13] = system: UACC-257 melanoma
[14] = system: DU-145 prostate
[15] = system: HS 578T breast
[16] = system: NCI/ADR-RES ovarian
[17] = system: T-47D breast

Row | SMILES | TGI [1] [µM] | TGI [2] [µM] | TGI [3] [µM] | TGI [4] [µM] | TGI [5] [µM] | TGI [6] [µM] | TGI [7] [µM] | TGI [8] [µM] | TGI [9] [µM] | TGI [10] [µM] | TGI [11] [µM] | TGI [12] [µM] | TGI [13] [µM] | TGI [14] [µM] | TGI [15] [µM] | TGI [16] [µM] | TGI [17] [µM]
1 | CC(C)C12C=CC(C)(CC1)n1c(=O)c3cc4ccccc4cc3c(=O)n12 (stereo not drawn) | > 100 | > 100 | > 100 | > 100 | > 100 | > 100 | > 100 | > 100 | > 100 | > 100 | > 100 | 94 | > 100 |  |  |  | 
2 | O=C1[C@@H]2C[C@@H](O)CN2C(=O)c2ccccc2N1CCCO |  | > 100 | > 100 |  | > 100 |  | > 100 | > 100 | > 100 | > 100 | > 100 | > 100 | > 100 | > 100 | > 100 | > 100 | > 100
3 | C/C(=N\NC(=S)NC(C)(C)C)c1ccccn1 |  | > 40.6 | > 100 | > 79.5 |  | > 100 |  | > 100 |  | 3.72 | 80.1 | > 100 | > 100 | > 100 | > 100 | > 39.7 | 34.9
4 | CCOC(=O)C1(C/C=C\CBr)CCCCCCCCCCC1=O (stereo not drawn) |  | 11.5 | 1.66 | 19.1 | > 27 | 26.2 | 33 | 9.75 | 35.2 | 9.02 | 31.2 | 22.8 | 31.3 | 31.9 | 43.2 | 39.2 | 29.7
5 | O=c1oc(-c2ccccc2)c(-c2ccccc2)n1-c1ccc(Br)cc1 | > 100 | > 100 | > 100 |  | > 100 | 85.3 | > 100 | > 100 | > 100 |  | > 100 | > 100 | > 100 | 89.4 | > 100 |  | > 100
6 | O=C(CNC(=O)OCc1ccccc1)NCCCCC(NC(=O)OCc1ccccc1)C(=O)NC(CCCCNC(=O)CNC(=O)OCc1ccccc1)C(=O)OCc1ccccc1 (stereo not drawn) | > 62.5 | > 62.5 | > 62.5 | > 62.5 | > 62.5 | > 62.5 | > 62.5 | > 62.5 | > 62.5 | > 62.5 |  | > 62.5 | > 62.5 | > 62.5 |  |  | > 62.5
7 | Cc1ccc(-c2c(C#N)c(N)nc3c2CCS(=O)(=O)c2ccccc2-3)cc1 |  | > 100 | > 100 | > 100 |  | > 100 | > 100 |  |  | > 100 |  | > 100 | > 100 | > 100 | > 100 | > 100 | > 100
8 | CC(C)C1COC(c2cccc(C3=N[C@@H](C(C)C)CO3)n2)=N1 (stereo partly drawn) | > 100 | > 100 | > 100 | > 100 | > 100 | > 100 | > 100 | > 100 | > 100 | > 100 | > 100 | > 100 |  |  |  |  | 
9 | CC1(C)OC(=O)C2(O1)C(=O)C1CCCCC12 (stereo not drawn) |  | > 100 |  | > 100 | > 100 | > 100 |  | > 100 | > 100 | > 100 | > 100 | > 100 | > 100 | > 100 | > 100 | > 100 | > 100
10 | O=C1C(=Nc2ccccc2)Oc2cc(O)ccc21 |  | > 100 | > 100 | > 100 | > 100 | > 100 | > 100 | > 100 | > 100 |  | > 100 | > 100 | > 100 | > 100 |  | > 100 | > 100
11 | Cc1ccc(S(=O)(=O)Nn2c(S)c(C#N)c(-c3ccc([N+](=O)[O-])cc3)c(C#N)c2=O)cc1 |  | 51 | 28.5 | > 100 | 47.7 |  | > 100 |  | > 100 | 37.8 | > 100 | > 100 | > 100 |  | 86.5 | > 100 | 
12 | O=C1CC(C(=O)N2CCCCC2)n2c(=O)n(-c3ccccc3)c(=O)n2C1 (stereo not drawn) |  | > 100 | > 100 | > 100 |  | > 100 | > 100 | > 100 | > 100 |  | > 100 | > 100 | > 100 | > 100 | > 100 | > 100 | 
13 | CCOP(=O)(OCC)C1=C(c2ccccc2)OC(N)=C(C#N)C1c1ccc(Cl)cc1 (stereo not drawn) | > 100 | > 100 | > 100 | > 100 | > 100 | > 100 | > 100 | > 100 | > 100 | > 100 | > 100 | > 100 | > 100 | > 100 |  | > 100 | > 100
14 | CN(C)CCn1c(=O)c2ccc3c4c(nn3CCN(C)C)c3cc(O)ccc3n(c1=O)c24 | 1.96 |  | 0.101 | 0.982 | 0.127 | 0.701 | 0.254 | 0.842 | 1.26 | 0.406 | 0.74 | 0.837 | 1.16 |  | 0.373 | 6.82 | > 39.2
15 | O=C1NC(=O)C(COCc2ccccc2)C2=C1SCCC2 (stereo not drawn) | > 100 | > 100 | > 100 | > 100 | > 100 | > 100 | > 100 | > 100 |  | > 100 |  |  | > 100 | > 100 | > 100 | > 100 | 
16 | NC(CCC(=O)O)(CCC(=O)O)CCC(=O)O |  | > 100 |  | > 100 | > 100 | > 100 | > 100 |  | > 100 | > 100 | > 100 | > 100 | > 100 | > 100 | > 100 | > 100 | > 100

Row | SMILES | TGI [1] [µM] | TGI [2] [µM] | TGI [3] [µM] | TGI [4] [µM] | TGI [5] [µM] | TGI [6] [µM] | TGI [7] [µM] | TGI [8] [µM] | TGI [9] [µM] | TGI [10] [µM] | TGI [11] [µM] | TGI [12] [µM] | TGI [13] [µM] | TGI [14] [µM] | TGI [15] [µM] | TGI [16] [µM] | TGI [17] [µM]
17 | CC1=N[C@](C)(C2CC3C=CC2C3=O)COC1=O (stereo partly drawn) | > 100 | > 100 |  | > 100 | > 100 | > 100 | > 100 | > 100 | > 100 |  | > 100 | > 100 | > 100 | > 100 | > 100 |  | > 100
18 | Cc1ccc2c(C)c3ccc4ccccc4c3c[n+]2c1 | > 100 | > 100 | 99.8 | 9.74 | 45.9 | 38.6 | 35.2 | 38.1 | > 100 | 64.8 | > 87.2 | > 100 | 33.7 |  |  |  | 
19 | c1ccc2cc(CNCCOCCOCCNCc3ccc4ccccc4c3)ccc2c1 | 4.07 | 3.22 | 3.06 | 3.9 | 4.49 | 4 | 3.24 | 3.7 | 4 | 4.31 | 8.62 | 3.04 | 2.96 | 3.37 | 3.74 |  | 4.95
20 | CC(C)(CO)NC(=O)Nc1c(C(F)(F)F)cc(-c2ccccc2)[nH]c1=O |  | > 100 | > 100 | > 100 | > 100 | > 100 | > 100 | > 100 | > 100 |  | > 100 | > 100 | > 100 | > 100 | > 100 | > 100 | > 100
21 | c1ccc(C2OCCO2)c(OCCOc2cc(OCCOc3ccccc3C3OCCO3)c(OCCOc3ccccc3C3OCCO3)cc2OCCOc2ccccc2C2OCCO2)c1 | > 100 | 28.6 | > 100 | > 100 | > 100 | 27.3 | > 100 | 46.8 | > 100 | > 100 | 13.7 | 31.4 | > 100 |  |  |  | 
22 | O=C(Cc1ccccc1)NCCCN(CCCCN(CCCNC(=O)Cc1ccccc1)C(=O)OCc1ccccc1)C(=O)OCc1ccccc1 |  | > 100 | > 100 |  | > 100 | > 100 | > 100 | > 100 | > 100 | > 100 | > 100 | > 100 | > 100 | > 100 | > 100 | > 100 | > 100
23 | NC(CCCCNC(=O)CNC(=O)OCc1ccccc1)C(=O)NC(CCCCNC(=O)CNC(=O)OCc1ccccc1)C(=O)NC(CCCCNC(=O)CNC(=O)OCc1ccccc1)C(=O)NC(CCCCNC(=O)CNC(=O)OCc1ccccc1)C(=O)NC(CCCCNC(=O)CNC(=O)OCc1ccccc1)C(=O)NC(CCCCNC(=O)CNC(=O)OCc1ccccc1)C(=O)O (stereo not drawn) | > 75 | > 75 | > 75 | > 75 | > 75 | > 75 | > 75 | > 75 | > 75 | > 75 |  | > 75 | > 75 | > 75 |  |  | > 75
24 | C[n+]1cccc2ccc(OC(=O)c3ccccc3)cc21 |  | > 100 | > 100 | > 100 | > 100 | > 100 |  | > 100 | > 100 | > 100 | > 100 | > 100 | > 100 | > 100 | > 100 | > 100 | > 100
25 | O=S(=O)(O)c1ccc2c(N=Nc3ccc(F)cc3)c(O)c(S(=O)(=O)O)cc2c1 |  | > 100 | > 100 | > 100 | > 100 | > 100 |  | > 100 | > 100 | > 100 | > 100 | > 100 | > 100 | > 100 | > 100 | > 100 | > 100
26 | COc1cc2c(cc1OC)C(C)N(C)c1c-2c(OC(C)=O)cc2cc(OC)c(OC)cc12 (stereo not drawn) |  |  | 39.8 | 14.8 | > 100 | 36.7 | 27.6 | > 100 | > 100 | > 59 | > 100 | > 100 | 24.2 | 40.8 | > 57.1 | 33.2 | 24.1
27 | COC(=O)C1=C(C)NC(C)=C(C(=O)OC)C1c1cccc(NO)c1 |  | 30.4 | 29.9 | 29.9 |  | 33.8 | 31.4 | 29.5 | 30.1 | > 100 | > 100 | 27.7 | 27.5 | > 100 | 64.4 | 42.3 | 55.4
28 | CCOc1ncn(-c2ccc(NC(=S)NC34CC5CC(CC(C5)C3)C4)cc2)n1 | > 100 | > 100 | > 100 |  | > 100 | > 100 | > 100 | > 100 | > 100 | > 100 | > 100 | > 100 | > 100 | > 100 |  |  | > 100
29 | COC(=O)C1CCC(=O)N1C(c1ccccc1)c1cc(OC)c(OC)c(OC)c1 (stereo not drawn) | 57.8 | > 100 | > 100 | > 100 | 89.3 | > 100 | > 100 | > 100 | > 100 |  | > 100 | > 100 | > 100 | > 100 |  | > 100 | > 100
30 | C=C=C(Sc1ccccc1)C(C)(C)OC(C)=O | 81 | 33.3 | 30.9 | 35.3 | > 100 | 32.9 | 46.8 | 31.1 | 45.2 | > 100 | 51.9 | > 100 | 32.4 | 90.2 |  |  | 
31 | COc1ccc(-c2cc(=O)c3cc4c(cc3[nH]2)OCO4)cc1 | > 100 | > 100 | > 100 | > 100 | > 100 | > 100 | > 100 | > 100 |  | > 100 |  | > 100 | > 100 |  |  |  | 
